Assay results reported in patent publication US20230357179A1, “RAF KINASE INHIBITORS AND METHODS OF USE THEREOF” (Deciphera Pharmaceuticals, LLC, priority 2021, published 2023).

Key:
C-Raf kinase = biological target: T1, C-Raf kinase (Homo sapiens, UniProt P04049, Y340D/Y341D); assay: Biochemical assay for C-Raf.1 (coupled pyruvate kinase/lactate dehydrogenase); settings: read-out: CRAF.1 IC50
T1 construct: Y340D,; GST (N); purchased Sigma
In short: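 C-Raf (0.43 nM) with MEK 30.1 nM and 1 mM ATP in Tris pH 7.5/MgCl2 buffer, activity coupled via PK/LDH to NADH oxidation (A340), 6 h at 30° C. Rates from 4–5 h window converted to % inhibition versus controls; IC50 by four-parameter fit, 1% DMSO.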

B-Raf kinase = biological target: T2, B-Raf kinase (Homo sapiens, UniProt P15056); assay: Biochemical assay for B-Raf.1 (coupled pyruvate kinase/lactate dehydrogenase); settings: read-out: BRAF.1 IC50
T2 construct: GST (N); purchased Sigma
T2 sequence (P15056 416-766): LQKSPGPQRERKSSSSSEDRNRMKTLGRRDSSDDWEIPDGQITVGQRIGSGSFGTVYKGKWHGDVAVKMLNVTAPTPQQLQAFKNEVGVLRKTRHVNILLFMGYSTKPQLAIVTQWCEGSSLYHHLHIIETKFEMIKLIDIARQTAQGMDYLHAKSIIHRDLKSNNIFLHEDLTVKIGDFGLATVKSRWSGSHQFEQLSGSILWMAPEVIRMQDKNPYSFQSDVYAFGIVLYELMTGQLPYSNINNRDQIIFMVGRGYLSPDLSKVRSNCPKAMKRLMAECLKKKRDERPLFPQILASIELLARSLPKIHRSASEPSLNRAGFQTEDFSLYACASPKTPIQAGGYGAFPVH
In short: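 NADH oxidation followed at 340 nm in a pyruvate kinase/lactate dehydrogenase-coupled assay with 0.13 nM B-Raf, 30.1 nM MEK substrate, 1 mM ATP, pH 7.5 Tris buffer, 1% DMSO. Monitored 6 h at 30 °C; rate taken from 4–5 h. IC50 from four-parameter sigmoidal fit.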

Miapaca-2 cells = assay: MiaPaca-2 cell proliferation assay (1), resazurin, 96-well; assay type: cell-based; settings: Homo sapiens, MIA PaCa-2, inhibition of cell proliferation
In short: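 Three thousand cells per well in DMEM with 10% FBS and 2.5% horse serum exposed to serially diluted compound in triplicate for 67-72 h at 37 °C, 5% CO2. Viability by resazurin (additional 5-6 h), fluorescence ex 540/em 600 nm; IC50 calculated.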

H2405 cells = assay: H2405 cell proliferation assay (1), resazurin, 96-well; assay type: cell-based; settings: Homo sapiens, NCI-H2405, inhibition of cell proliferation
In short: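 This is a resazurin viability readout (excitation 540 nm, emission 600 nm) taken 5-6 h after adding 440 μM resazurin solution, giving IC50 values.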

T1 sequence (P04049 307-648 Y340D/Y341D): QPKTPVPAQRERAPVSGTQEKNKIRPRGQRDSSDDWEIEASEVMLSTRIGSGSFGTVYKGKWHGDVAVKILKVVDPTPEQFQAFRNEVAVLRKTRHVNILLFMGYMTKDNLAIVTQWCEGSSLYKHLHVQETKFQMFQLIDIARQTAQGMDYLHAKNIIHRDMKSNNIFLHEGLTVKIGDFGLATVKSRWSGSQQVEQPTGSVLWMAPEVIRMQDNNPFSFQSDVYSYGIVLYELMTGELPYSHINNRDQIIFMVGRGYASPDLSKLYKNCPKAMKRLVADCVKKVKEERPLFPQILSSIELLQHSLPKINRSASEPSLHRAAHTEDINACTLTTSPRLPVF

Structure (SMILES) | IC50 (C-Raf kinase) [nM] | IC50 (B-Raf kinase) [nM] | IC50 (Miapaca-2 cells) [nM] | IC50 (H2405 cells) [nM]
Cc1ccc(NC(=O)NCCC(C)(C)C)cc1-c1ccnc(N2CCOCC2)c1 [Example 18] | ≤ 100 | ≤ 100 | 1000 to 10000 | 
COC(C)(C)CCNC(=O)Nc1ccc(C)c(-c2cc(-c3cnn(C)c3)nc(N3CCOCC3)c2)c1 [Example 38] | ≤ 100 | ≤ 100 | 1000 to 10000 | 
CC(=O)Nc1cc(-c2cc(-c3cc(NC(=O)NC4CC(C)(C)C4)c(F)cc3C)cc(OCCO)n2)ccn1 [Example 47] | ≤ 100 | ≤ 100 | 500 to 1000 | 
CC(=O)Nc1cc(-c2cc(-c3cc(NC(=O)Nc4ccc(C(F)(F)F)cc4)cnc3C)ccn2)ccn1 [Example 48] | ≤ 100 | ≤ 100 | 1000 to 10000 | 
Cc1ccc(NC(=O)N[C@H]2C[C@](C)(F)C2)cc1-c1cc(OCCO)nc(-c2ccnc(NC(=O)CN(C)C)c2)c1 [Example 50] | ≤ 100 | ≤ 100 | 1000 to 10000 | 
CC(=O)Nc1cc(-c2cc(-c3cc(NC(=O)NCCC4(C)CC4)c(F)cc3C)cc(C3CC3)n2)ccn1 [Example 51] | ≤ 100 | ≤ 100 | 1000 to 10000 | 
CC(=O)Nc1cc(-c2cc(-c3cc(NC(=O)NCC45CC(F)(C4)C5)c(F)cc3C)cc(OCCO)n2)ccn1 [Example 52] | ≤ 100 | ≤ 100 | 1000 to 10000 | 
CC(=O)Nc1cc(-c2cc(-c3cc(NC(=O)NC4CCCCC4)c(F)cc3C)cc(OCCO)n2)ccn1 [Example 53] | ≤ 100 | ≤ 100 | 500 to 1000 | 
CC(=O)Nc1cc(-c2cc(-c3cc(NC(=O)NCCC4(C(F)(F)F)CC4)c(F)cc3C)cc(C3CC3)n2)ccn1 [Example 54] | ≤ 100 | ≤ 100 | 1000 to 10000 | 
CC(=O)Nc1cc(-c2cc(-c3cc(NC(=O)NCCC4(C)CC4)c(F)cc3C)cc(C)n2)ccn1 [Example 55] | ≤ 100 | ≤ 100 | 1000 to 10000 | 
CC(=O)Nc1cc(-c2cc(-c3cc(NC(=O)NCCC4(C)CC4)ccc3C)cc(N3CCOCC3)n2)ccn1 [Example 57] | ≤ 100 | ≤ 100 | 1000 to 10000 | 
CC(=O)Nc1cc(-c2cc(-c3cc(NC(=O)NCCC(C)(C)C#N)c(F)cc3C)cc(C3CC3)n2)ccn1 [Example 59] | ≤ 100 | ≤ 100 | 1000 to 10000 | 
COC(C)(C)CCNC(=O)Nc1ccc(C)c(-c2cc(-c3ccnc(NC(C)=O)c3)n(C)c(=O)c2)c1 [Example 60] | 100 to 500 | > 1000 | 1000 to 10000 | 
Cc1ccc(NC(=O)N[C@H]2C[C@](C)(F)C2)cc1-c1cc(-c2ccnc(NC(=O)C3CC3)c2)nc(C2CC2)c1 [Example 61] | ≤ 100 | ≤ 100 | 1000 to 10000 | 
CC(=O)Nc1cc(-c2cc(-c3cc(NC(=O)NC4CCC(F)(F)CC4)c(F)cc3C)cc(OCCO)n2)ccn1 [Example 63] | ≤ 100 | ≤ 100 | 1000 to 10000 | 
Cc1cc(F)c(NC(=O)NCCC2(C)CC2)cc1-c1cccc(-c2ccnc(NC(=O)C3CC3)c2)c1 [Example 64] | ≤ 100 | ≤ 100 | 1000 to 10000 | 
COC(C)(C)CCNC(=O)Nc1cc(-c2cnnc(-c3ccnc(NC(=O)C4CC4)c3)c2)c(C)cc1F [Example 173] | ≤ 100 | ≤ 100 |  | 100 to 500
COC(=O)Nc1cc(-c2nc(OCCO)cc(-c3cc(NC(=O)NC4CC(C)(C)C4)cnc3C)n2)ccn1 [Example 174] | ≤ 100 | 100 to 500 |  | 500 to 1000
CC(=O)Nc1cc(-c2cc(-c3cc(NC(=O)NCCC4(C)CC4)c(F)cc3C)cc(NCCO)n2)ccn1 [Example 175] | ≤ 100 | ≤ 100 |  | ≤ 100
COC[C@H]1CCN(C(=O)Nc2cnc(C)c(-c3ccnc(-c4ccnc(NC(=O)OC)c4)c3)c2)C1 [Example 176] | 100 to 500 | > 1000 |  | 1000 to 10000
CNC(=O)c1cc(-c2cnnc(-c3cc(NC(=O)N4CC[C@H](OC)C4)ccc3C)c2)ccn1 [Example 177] | > 1000 | > 1000 |  | 1000 to 10000
CNC(=O)c1cc(-c2cnnc(-c3cc(NC(=O)N4CCC5(CC5)C4)ccc3C)c2)ccn1 [Example 178] | 500 to 1000 | > 1000 |  | 1000 to 10000
COC[C@@H]1CCN(C(=O)Nc2cnc(C)c(-c3ccnc(-c4ccnc(NC(=O)OC)c4)c3)c2)C1 [Example 179] | 100 to 500 | > 1000 |  | 1000 to 10000
CNC(=O)c1cc(-c2cnnc(-c3cc(NC(=O)N4CCC(C(C)(C)C)C4)ccc3C)c2)ccn1 (stereo not shown) [Example 180] | 100 to 500 | 500 to 1000 |  | 1000 to 10000

Structure (SMILES) | IC50 (C-Raf kinase) [nM] | IC50 (B-Raf kinase) [nM] | IC50 (Miapaca-2 cells) [nM] | IC50 (H2405 cells) [nM]
CNC(=O)c1cc(-c2cnnc(-c3cc(NC(=O)N4CC[C@@H](OC)C4)ccc3C)c2)ccn1 [Example 181] | > 1000 | > 1000 |  | 1000 to 10000
CNC(=O)c1cc(-c2cnnc(-c3cc(NC(=O)N4CC[C@@H](OC(F)(F)F)C4)ccc3C)c2)ccn1 [Example 182] | 100 to 500 | 500 to 1000 |  | 1000 to 10000
CNC(=O)c1cc(-c2cnnc(-c3cc(NC(=O)N4CCC(C(C)(C)C)C4)cnc3C)c2)ccn1 (stereo not shown) [Example 184] | 500 to 1000 | > 1000 |  | 1000 to 10000
COC(=O)Nc1cc(-c2cnnc(-c3cc(NC(=O)N4CCC(C(C)(C)C)C4)ccc3C)c2)ccn1 (stereo not shown) [Example 185] | ≤ 100 | 100 to 500 |  | 100 to 500
COC(=O)Nc1cc(-c2cnnc(-c3cc(NC(=O)N4CCC(CC(F)(F)F)C4)ccc3C)c2)ccn1 (stereo not shown) [Example 186] | ≤ 100 | ≤ 100 |  | 100 to 500
COC(=O)Nc1cc(-c2cc(-c3cc(NC(=O)NCCC4(C)CC4)ccc3F)cc(OCCO)n2)ccn1 [Example 187] | ≤ 100 | ≤ 100 |  | 1000 to 10000
COC(=O)Nc1cc(-c2cc(-c3cc(NC(=O)NCCC4(C)CC4)c(F)cc3F)cc(OCCO)n2)ccn1 [Example 188] | ≤ 100 | ≤ 100 |  | 500 to 1000
COC(=O)Nc1cc(-c2nccc(-c3cc(NC(=O)N4CCC(C(F)(F)F)C4)ccc3C)n2)ccn1 (stereo not shown) [Example 193] | ≤ 100 | ≤ 100 |  | 1000 to 10000
Cc1ccc(NC(=O)N2CCC(CC(F)(F)F)C2)cc1-c1cncc(-c2cc(NC(=O)C3CC3)ncn2)c1 (stereo not shown) [Example 194] | ≤ 100 | ≤ 100 |  | 100 to 500
Cc1ccc(NC(=O)N2CC[C@@H](C(F)(F)F)C2)cc1-c1cncc(-c2ccnc(NC(=O)C3CC3)c2)c1 [Example 196] | ≤ 100 | ≤ 100 |  | 500 to 1000
Cc1ccc(NC(=O)N2CC[C@H](C(F)(F)F)C2)cc1-c1cncc(-c2ccnc(NC(=O)C3CC3)c2)c1 [Example 197] | ≤ 100 | ≤ 100 |  | 100 to 500
COC(=O)Nc1cc(-c2cncc(-c3cc(NC(=O)N4CCCCCC4)ccc3C)c2)ccn1 [Example 202] | 100 to 500 | 500 to 1000 |  | 1000 to 10000
COC(=O)Nc1cc(-c2cnnc(-c3cc(NC(=O)N4CCC(C(C)(C)O)C4)ccc3C)c2)ccn1 (stereo not shown) [Example 206] | 100 to 500 | 500 to 1000 |  | 
Cc1ccc(NC(=O)N2CCC(CC(F)(F)F)C2)cc1-c1cncc(-c2cc(N)ncn2)c1 (stereo not shown) [Example 207] | ≤ 100 | 100 to 500 |  | 
COC(=O)Nc1cc(-c2cncc(-c3cc(NC(=O)N4CCCCC4)ccc3C)c2)ccn1 [Example 208] | 100 to 500 | > 1000 |  | 500 to 1000
Cc1ccc(NC(=O)N2CCC(F)(F)C2)cc1-c1cncc(-c2cc(NC(=O)C3CC3)ncn2)c1 [Example 209] | ≤ 100 | ≤ 100 |  | 1000 to 10000
Cc1ccc(NC(=O)N2CC[C@@H](C(F)(F)F)C2)cc1-c1cncc(-c2cc(NC(=O)C3CC3)ncn2)c1 [Example 210] | ≤ 100 | ≤ 100 |  | 100 to 500
COC(=O)Nc1cc(-c2cncc(-c3cc(NC(=O)N4CC[C@H](C(F)(F)F)C4)ccc3C)c2)ccn1 [Example 211] | ≤ 100 | ≤ 100 |  | 100 to 500
COC(=O)Nc1cc(-c2cncc(-c3cc(NC(=O)N4CCCC4)ccc3C)c2)ccn1 [Example 213] | 500 to 1000 | > 1000 |  | 1000 to 10000
Cc1ccc(NC(=O)N2CCC3(CC3)C2)cc1-c1cncc(-c2cc(NC(=O)C3CC3)ncn2)c1 [Example 218] | ≤ 100 | ≤ 100 |  | 100 to 500
Cc1ccc(NC(=O)N2CC[C@@H](C)C2)cc1-c1cncc(-c2cc(NC(=O)C3CC3)ncn2)c1 [Example 219] | ≤ 100 | ≤ 100 |  | 100 to 500
COC(=O)Nc1cc(-c2cc(-c3cc(NC(=O)N4CCC(C(F)(F)F)C4)ccc3C)cc(OCCO)n2)ccn1 (stereo not shown) [Example 222] | ≤ 100 | ≤ 100 |  | 100 to 500
COC(=O)Nc1cc(-c2cc(-c3cc(NC(=O)N4CC[C@H](C(F)(F)F)C4)ccc3C)nc(C)n2)ccn1 [Example 223] | 100 to 500 | ≤ 100 |  | 1000 to 10000
